Data reported in PubChem BioAssay (NCI).
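In this assay, cells in 96-well plates receive the compound at five concentrations for 48 hours. Endpoints are linearly interpolated between the surrounding concentrations. GI50: concentration for 50% inhibition of growth. At the TGI there is no net growth.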

Experiments:
Assay in all cases: NCI tumour cell line growth inhibition, 48 h
[1] = test system: RXF 393 renal
[2] = test system: OVCAR-4 ovarian
[3] = test system: SNB-19 CNS
[4] = test system: NCI/ADR-RES ovarian
[5] = test system: SF-539 CNS
[6] = test system: HOP-92 NSCLC
[7] = test system: HL-60(TB) leukemia
[8] = test system: UACC-62 melanoma
[9] = test system: HCT-116 colon
[10] = test system: CCRF-CEM leukemia

| SMILES | GI50 [1] | TGI [1] | GI50 [2] | TGI [2] | GI50 [3] | TGI [3] | GI50 [4] | GI50 [5] | TGI [5] | GI50 [6] | TGI [6] | GI50 [7] | TGI [7] | GI50 [8] | TGI [8] | GI50 [9] | TGI [9] | TGI [10] | TGI [4] | GI50 [10] |
| --- | --- | --- | --- | --- | --- | --- | --- | --- | --- | --- | --- | --- | --- | --- | --- | --- | --- | --- | --- | --- |
| O=c1cccc(C#CC#C/C=C/CO)o1 | 2.38 µM | 7.03 µM | 3.1 µM | > 100 µM | 3.06 µM | 10.7 µM | 2.52 µM | 3.19 µM | 8.26 µM | 2.74 µM | 5.85 µM | 3.17 µM | > 100 µM | 1.68 µM | 3.39 µM | 5.71 µM | > 100 µM |  |  |  |
| CC1=C(C(=O)Nc2ccccc2C)C(c2ccc(C3C(C(=O)Nc4ccccc4C)=CNC=C3C(=O)Nc3ccccc3C)cc2)C(C(=O)Nc2ccccc2C)=C(C)N1 |  | 85.1 µM |  | 22 µM |  | 49.1 µM |  |  | 19.6 µM |  | 46.4 µM |  | 29.9 µM |  | 31.9 µM |  | > 49.7 µM | > 29 µM |  |  |
| CC1CCC23COC(=O)C2C(O)CCC3C1(C)CC(O)c1ccoc1 (configuration not stated) |  | > 100 µM |  | > 100 µM |  | > 100 µM |  |  | > 100 µM |  | > 100 µM |  |  |  | > 100 µM |  | > 100 µM | > 100 µM |  |  |
| O=C1C(N2C(=O)c3ccccc3C2=O)CN1C(COCc1ccccc1)c1ccc(OCc2ccccc2)cc1 (configuration not stated) |  | > 100 µM |  | > 100 µM |  | > 100 µM |  |  | > 100 µM |  | > 100 µM |  | > 100 µM |  | > 100 µM |  | > 100 µM | > 100 µM |  |  |
| O=[N+]([O-])c1ccc(-c2cn(-c3ccc(Cl)cc3)cn2)cc1 |  |  |  |  |  | > 100 µM |  |  |  |  |  |  | > 100 µM |  | > 100 µM |  | > 100 µM | > 100 µM | > 100 µM |  |
| CN(C)CCC1(C2=CCCC2)CC/C(=C\c2ccccc2)C1=O (configuration not stated) |  | 26.6 µM |  | 31 µM |  | 28.3 µM |  |  | 30.5 µM |  | 45.6 µM |  | 29.9 µM |  | 26.6 µM |  | 35.4 µM | 50.3 µM |  |  |
| O=c1[nH]c(/C=C(\O)c2ccncc2)nc2ccccc12 |  |  |  | > 100 µM |  | > 100 µM |  |  |  |  |  |  | > 100 µM |  | > 100 µM |  | > 100 µM | > 100 µM |  |  |
| COC(=O)C(Cc1nc2ccccc2[nH]c1=O)C(=O)C(=O)Nc1ccc(OC)cc1[N+](=O)[O-] (configuration not stated) |  |  |  | > 100 µM |  | > 100 µM |  |  | > 100 µM |  | > 100 µM |  | > 100 µM |  | > 100 µM |  | > 100 µM | > 100 µM |  |  |
| CSc1nc2c(c(=O)[nH]1)C(c1ccc(Cl)cc1)C1=C(N2)/C(=C/c2ccc(Cl)cc2)CNC1 (configuration not stated) | 1.65 µM | 3.42 µM | 4.76 µM | 19.2 µM | 2.31 µM | 8.29 µM | 3.29 µM | 1.78 µM | 3.5 µM |  |  | 2.44 µM | 6.26 µM | 2.02 µM | 4.5 µM | 1.72 µM | 3.55 µM | 8.99 µM | 16.5 µM | 2.55 µM |
| O=c1/c(=C/c2ccc3c(c2)OCO3)sc2nnc(-c3ccco3)n12 |  | > 100 µM |  | > 100 µM |  | > 100 µM |  |  | > 100 µM |  |  |  | > 100 µM |  | > 100 µM |  | > 100 µM | > 100 µM |  |  |
| C=C1C(=O)OC2/C=C(\C)C3OC3/C=C(/C(=O)OC)C(OC(C)=O)C(OC(=O)C(C)(O)C(C)OC(C)=O)C12 (configuration not stated) |  | 1.35 µM |  | 12.6 µM |  | 29.1 µM |  |  | 5.43 µM |  | 4.1 µM |  |  |  | 4.55 µM |  | 6.14 µM | 3.04 µM |  |  |
| CN(C)/C=N/c1nc2ncn(CCOC(=O)c3ccccc3)c2c(=O)[nH]1 |  | > 100 µM |  | > 100 µM |  |  |  |  | > 100 µM |  | > 100 µM |  | > 100 µM |  | > 100 µM |  | > 100 µM | > 100 µM |  |  |
| CCSc1nc2n(c(=S)n1)CCN2C |  | 23.7 µM |  | 44.5 µM |  | 37.8 µM |  |  | 58.9 µM |  |  |  | 46.1 µM |  | 25.8 µM |  | 33.7 µM |  |  |  |
| Cc1nn(-c2ccc(Br)cc2)c(C)c1CC(=O)c1cc(O)ccc1O | 9.01 µM | 27.8 µM | 15.9 µM | > 50 µM | 15 µM | > 50 µM | 11.2 µM | 11.5 µM | 28 µM |  |  | 11.9 µM | > 50 µM | 4.24 µM | 11.4 µM | 12.6 µM | > 50 µM | > 50 µM | 45.6 µM | 19 µM |
| CC(Oc1ccc2cc(C(=O)c3ccccc3)c(=O)oc2c1)C(=O)O (configuration not stated) |  | > 100 µM |  | > 100 µM |  | > 100 µM |  |  | > 100 µM |  | > 100 µM |  | > 100 µM |  | > 100 µM |  | > 100 µM | > 100 µM |  |  |
| Cc1cc2c(cc1C)[n+](=O)c(C(=O)/C=C/c1ccccc1Cl)c(C)n2[O-] |  |  |  | > 100 µM |  | > 100 µM |  |  | 42.6 µM |  |  |  | 99.6 µM |  | 35.1 µM |  |  | > 100 µM |  |  |
| COC(=O)C1C2CCCN2OC1(C)CO (configuration not stated) |  |  |  | > 100 µM |  | > 100 µM |  |  | > 100 µM |  |  |  | > 100 µM |  | > 100 µM |  | > 100 µM | > 100 µM | > 100 µM |  |
| C[C@@]1(N2C(=O)OC[C@@H]2c2ccccc2)C(=O)N([C@H](CC(=O)N2CCC(N3CCCCC3)CC2)C(=O)NCc2cccc(C(F)(F)F)c2)[C@@H]1/C=C/c1ccccc1 | 2.1 µM | 4.51 µM | 2.6 µM | 9.86 µM | 2.55 µM | 6.56 µM | 10.2 µM | 1.77 µM | 3.32 µM |  |  | 2.13 µM | 4.65 µM | 1.85 µM | 3.78 µM | 1.93 µM | 3.51 µM | 7.07 µM | 24 µM | 2.97 µM |
| COc1ccc(C(=O)O)c(Cc2ccc3ccccc3c2)c1 |  | > 100 µM |  | > 100 µM |  | > 100 µM |  |  | > 100 µM |  | > 100 µM |  | > 100 µM |  | > 100 µM |  | > 100 µM | > 100 µM |  |  |
| CC([O-])C(=O)[O-].NCC1CCC1CN.[Pt+4] (configuration not stated) |  |  | > 10 µM | > 10 µM | > 10 µM | > 10 µM | > 10 µM | > 10 µM | > 10 µM | > 10 µM | > 10 µM | > 10 µM | > 10 µM | 6.87 µM | > 10 µM | > 10 µM | > 10 µM | > 10 µM | > 10 µM | 4.39 µM |
